Measurements: patent publication US8361964B2, “Growth hormone releasing factor (GRF) analogs and uses thereof” (Theratechnologies Inc., priority 2011, dated 2013)
Where a SMILES comes first, the peptide text is derived from it.

Key:
Growth Hormone secretion [1] = test: Growth Hormone secretion in female mice after subcutaneous GRF analog; format: in vivo; conditions: female CD-1 mice; 10 μg/mouse subcutaneous; plasma 10 minutes after injection
How it was run: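 Female CD-1 mice (20–25 g) got a subcutaneous dose of 10 μg/mouse GRF analog in 20 mM sodium acetate + 5% mannitol, pH 5. Plasma was taken by cardiac puncture 10 min after dosing into K3EDTA. GH was measured by rat/mouse GH ELISA on 20-fold diluted plasma.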

Growth Hormone secretion [2] = test: Growth Hormone secretion in female rats after subcutaneous GRF analog; format: in vivo; conditions: female Sprague-Dawley rats; 10 μg/rat subcutaneous; plasma 0-60 minutes
How it was run: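 Female Sprague-Dawley rats (250–300 g), isoflurane-anaesthetised with carotid cannula, got GRF analog 10 μg/rat s.c. in 20 mM AcONa + 5% mannitol, pH 5. Blood was drawn at 0, 10, 20, 30, 45 and 60 min (4–8 rats per group per time point). Plasma GH was measured by rat/mouse GH ELISA on 20-fold diluted samples.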

human GRF receptor = biological target: T1, human GRF receptor (Homo sapiens, UniProt Q02643); test: Alkaline phosphatase (AP) assay, GHRHr agonist activity; format: cell-based; conditions: BHK cells stably expressing human GRF receptor and alkaline phosphatase reporter gene; 24 hrs stimulation; read-out: EC50 (nM) as assessed by alkaline phosphatase (AP) induction
T1 construct: expressed in transfected cells; host or cells: baby hamster kidney (BHK) cells, stably transfected
T1 sequence (Q02643 23-423): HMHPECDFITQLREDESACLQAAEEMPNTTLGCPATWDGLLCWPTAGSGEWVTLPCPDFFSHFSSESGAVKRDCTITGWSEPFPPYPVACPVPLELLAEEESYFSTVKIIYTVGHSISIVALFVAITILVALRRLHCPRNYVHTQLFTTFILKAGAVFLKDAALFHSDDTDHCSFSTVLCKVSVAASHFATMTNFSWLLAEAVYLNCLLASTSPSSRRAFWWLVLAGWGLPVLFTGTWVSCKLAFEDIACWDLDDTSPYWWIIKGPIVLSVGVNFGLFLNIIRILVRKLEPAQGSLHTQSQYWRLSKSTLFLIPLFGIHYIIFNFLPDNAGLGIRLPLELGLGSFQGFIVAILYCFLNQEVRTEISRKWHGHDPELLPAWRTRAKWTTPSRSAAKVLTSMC
Procedure: The activity of representative GRF peptides was tested on baby hamster kidney (BHK) cells stably transfected to express the human GRF receptor and an alkaline phosphatase reporter gene. Cells were cultured 24 hours before stimulation, in 96-well plates, at a concentration of 0.5×10^5 cells/well. Before stimulation, cells were washed twice with DPBS and incubated 10-30 min in assay buffer (DMEM without phenol red supplemented with 20 mM HEPES and 1% heat inactivated fetal bovine serum (FBS). The dose response curve of the GRF peptides was done for 24 hrs with concentrations of peptides from 10^−5 M to 10^−11 M. Supernatant was collected and analysis of alkaline phosphatase levels was performed using the Alkaline Phosphatase detection kit from Applied Biosystems.
The in vitro activity of representative GRF analogs was tested on baby hamster kidney (BHK) cells expressing human GHRHr.

[3] = following intravenous injection in humans; cited from earlier work

| Molecule | EC50 (human GRF receptor) [nM] | GH levels 10 min (Growth Hormone secretion [1]) [ng/mL] | Mean AUC (GH Area Under the curve, GH concentration over time) (Growth Hormone secretion [2]) | Mean Cmax (ng/ml) of Growth Hormone secretion (Growth Hormone secretion [2]) [ng/mL] | half-life [3] |
| --- | --- | --- | --- | --- | --- |
| Tyr-Ala-Asp-Ala-Ile-Phe-Thr-Asn-Ser-Tyr-Arg-Lys-Val-Leu-Gly-Gln-Leu-Ser-Ala-Arg-Lys-Leu-Leu-Gln-Asp-Ile-Met-Ser-Arg [hGRF(1-29)] | – | – | – | – | approximately 12 min |
| CC[C@H](C)[C@H](NC(=O)[C@H](C)NC(=O)[C@H](CC(=O)O)NC(=O)[C@@H](C)NC(=O)[C@@H](N)Cc1ccc(O)cc1)C(=O)N[C@@H](Cc1ccccc1)C(=O)N[C@H](C(=O)N[C@@H](CC(=O)O)C(=O)N[C@@H](CO)C(=O)N[C@@H](Cc1ccc(O)cc1)C(=O)N[C@@H](CCCNC(=N)N)C(=O)N[C@@H](CCCCN)C(=O)N[C@H](C(=O)N[C@@H](CC(C)C)C(=O)N[C@@H](C)C(=O)N[C@@H](CCC(N)=O)C(=O)N[C@@H](CC(C)C)C(=O)N[C@@H](CCCCN)C(=O)N[C@@H](C)C(=O)N[C@@H](CCCNC(=N)N)C(=O)N[C@@H](CCC(N)=O)C(=O)N[C@@H](CC(=O)O)C(=O)N[C@H](C(=O)N[C@@H](CC(C)C)C(=O)N[C@@H](C)C(=O)N[C@@H](CCCNC(=N)N)C(=O)N[C@@H](C)C(=O)N[C@@H](C)C(=O)N[C@@H](CCCNC(=N)N)C(=O)N[C@@H](C)C(=O)N[C@@H](C)C(=O)N[C@@H](CCCNC(=N)N)C(N)=O)[C@@H](C)CC)C(C)C)[C@@H](C)O [SEQ ID NO: 28, Y-a-DAIFTDSYRKVLAQLKARQDILARAARAAR-NH2] (HELM PEPTIDE1{Y.[dA].D.A.I.F.T.D.S.Y.R.K.V.L.A.Q.L.K.A.R.Q.D.I.L.A.R.A.A.R.A.A.R.[am]}$$$$V2.0) | 0.11 | 449.7 | 17633 | 806.2 | – |

Further lines, with some results ahead:

| EC50 (human GRF receptor) [nM] | Molecule | GH levels 10 min (Growth Hormone secretion [1]) [ng/mL] | Mean AUC (GH Area Under the curve, GH concentration over time) (Growth Hormone secretion [2]) | Mean Cmax (ng/ml) of Growth Hormone secretion (Growth Hormone secretion [2]) [ng/mL] | half-life [3] |
| --- | --- | --- | --- | --- | --- |
| 0.11 | CC/C=C/CC(=O)N[C@@H](Cc1ccc(O)cc1)C(=O)N[C@@H](C)C(=O)N[C@@H](CC(=O)O)C(=O)N[C@@H](C)C(=O)N[C@H](C(=O)N[C@@H](Cc1ccccc1)C(=O)N[C@H](C(=O)N[C@@H](CC(=O)O)C(=O)N[C@@H](CO)C(=O)N[C@@H](Cc1ccc(O)cc1)C(=O)N[C@@H](CCCNC(=N)N)C(=O)N[C@@H](CCCCN)C(=O)N[C@H](C(=O)N[C@@H](CC(C)C)C(=O)N[C@@H](C)C(=O)N[C@@H](CCC(N)=O)C(=O)N[C@@H](CC(C)C)C(=O)N[C@@H](CCCCN)C(=O)N[C@@H](C)C(=O)N[C@@H](CCCNC(=N)N)C(=O)N[C@@H](CCC(N)=O)C(=O)N[C@@H](CC(=O)O)C(=O)N[C@@H](CC(C)C)C(=O)N[C@@H](CC(C)C)C(=O)N[C@@H](C)C(=O)N[C@@H](CCCNC(=N)N)C(=O)N[C@@H](C)C(=O)N[C@@H](C)C(=O)N[C@@H](CCCNC(=N)N)C(=O)N[C@@H](C)C(=O)N[C@@H](C)C(=O)N[C@@H](CCCNC(=N)N)C(N)=O)C(C)C)[C@@H](C)O)[C@@H](C)CC [SEQ ID NO: 32, Trans-3-hexenoyl-YADAIFTDSYRKVLAQLKARQDLLARAARAAR-NH2] (HELM PEPTIDE1{[CC/C=C/CC(=O)[*:2]].Y.A.D.A.I.F.T.D.S.Y.R.K.V.L.A.Q.L.K.A.R.Q.D.L.L.A.R.A.A.R.A.A.R.[am]}$$$$V2.0) | 401.6 | 10500 | 514.8 | – |
| 0.25 | Ac-YADAIFTDSYRKVLAQLSARKLLQDILSR-NH2 [SEQ ID NO: 43, Ac-YADAIFTDSYRKVLAQLSARKLLQDILSR-NH2, reference compound] | 277 | 2128 | 83.6 | – |
| 0.2 | CC[C@H](C)[C@H](NC(=O)[C@H](C)NC(=O)[C@H](CC(=O)O)NC(=O)[C@@H](C)NC(=O)[C@@H](N)Cc1ccc(O)cc1)C(=O)N[C@@H](Cc1ccccc1)C(=O)N[C@H](C(=O)N[C@@H](CC(=O)O)C(=O)N[C@@H](CO)C(=O)N[C@@H](Cc1ccc(O)cc1)C(=O)N[C@@H](CCCNC(=N)N)C(=O)N[C@@H](CCCCN)C(=O)N[C@H](C(=O)N[C@@H](CC(C)C)C(=O)N[C@@H](C)C(=O)N[C@@H](CCC(N)=O)C(=O)N[C@@H](CC(C)C)C(=O)N[C@@H](CCCCN)C(=O)N[C@@H](C)C(=O)N[C@@H](CCCNC(=N)N)C(=O)N[C@@H](CCC(N)=O)C(=O)N[C@@H](CC(=O)O)C(=O)N[C@H](C(=O)N[C@@H](CC(C)C)C(=O)N[C@@H](C)C(=O)N[C@@H](CCCNC(=N)N)C(=O)N[C@@H](C)C(=O)N[C@@H](C)C(=O)N[C@@H](CCCNC(=N)N)C(=O)N[C@@H](C)C(=O)N[C@@H](C)C(=O)N[C@@H](CCCNC(=N)N)C(=O)N[C@@H](CCO)C(N)=O)[C@@H](C)CC)C(C)C)[C@@H](C)O [SEQ ID NO: 37, Y-a-DAIFTDSYRKVLAQLKARQDILARAARAAR-HoSer-NH2] (HELM PEPTIDE1{Y.[dA].D.A.I.F.T.D.S.Y.R.K.V.L.A.Q.L.K.A.R.Q.D.I.L.A.R.A.A.R.A.A.R.[O=C([C@H](CCO)N[*:1])[*:2]].[am]}$$$$V2.0) | – | 14757 | 594.6 | – |
